Results published in US9220705B2, “Method of treating colorectal cancer” (priority 2013, dated 2015).
Several values for one entry are separate records, joined by “and”; a condition that tells them apart may be missing. Identical values can stand only once. Marks after values point to notes of the source that are not given here.

How the values were obtained:
A375 = test: MTT cytotoxicity assay, 72 h; type: cell-based, human; settings: A375, skin
Source text: (§1) Human breast (MCF-7) and colon (HCT-15, DDL1, SW480 and CaCo-2) carcinoma cell lines along with melanoma (A375) were obtained from the American Type Culture Collection (ATCC, Rockville, Md.). A431 are human cervical carcinoma cells kindly provided by Prof. F. Zunino (Molecular Pharmacology Unit, Experimental Oncology and Molecular Medicine, Istituto Nazionale dei Tumori, Milan, Italy). […] G. Marverti (Dept. of Biomedical Science, University of Modena, Italy). LoVo human colon-carcinoma cell line and its multidrug-resistant sublime (LoVo MDR) were kindly provided by Prof F. Maj one (Department of Biology of Padova University, Italy). […] Cell lines were maintained in the logarithmic phase at 37° C. in a 5% carbon dioxide atmosphere using the following culture media containing 10% fetal calf serum (Euroclone, Milan, Italy), antibiotics (50 units mL^−1 penicillin and 50 μg mL^−1 streptomycin), and 2 mM L-glutamine in: i) RPMI-1640 medium (Euroclone) for MCF-7, HCT-15, A431, DLD 1, 2008, and C13* cells; ii) F-12 HAM'S (Sigma Chemical Co.) for LoVo, LoVo MDR, and LoVo-OXP cells; iii) DMEM for A375 and SW 480 cells; and iv) MEM for CaCo-2 cells.
(§2) The growth inhibitory effect towards tumor cell lines was evaluated by means of the MTT (3-(4,5-dimethylthiazol-2-yl)-2,5-diphenyltetrazolium bromide) assay (Alley, M. C., et al., Cancer Res. 1988, 48, 589-601).
(§3) Briefly, depending upon the growth characteristics of the cell line, 3-8×10^3 cells well^−1, were seeded in 96-well microplates in growth medium (100 μL) and then incubated at 37° C. in a 5% carbon dioxide atmosphere. After 24 h, the medium was removed and replaced with a fresh one containing the compound to be studied, at the appropriate concentration, dissolved in 0.9% sodium chloride solution just before use. Triplicate cultures were established for each treatment. After 72 h, each well was treated with […] of a 5 mg mL^−1 MTT saline solution and, after 5 h of incubation, 100 μL of a sodium dodecylsulfate (SDS) solution in 0.01 M HCl were added. After an overnight incubation, the inhibition of cell growth induced by the tested complexes was determined by measuring the absorbance of each well at 570 nm using a BioRad 680 microplate reader. Mean absorbance for each drug dose was expressed as percentage of the control and plotted vs. drug concentration. Dose-response curves were fitted and IC50 values were calculated with four parameter logistic model (4PL).
(§4) Compound 1 was prepared for the first time almost twenty years ago however, until now, it had been tested (both in vitro and in vivo) only in a limited number of tumor cell lines (Hoeschele, J. D., et al., J. Med. Chem. 1994, 37, 2630-2636 and Shamsuddin, S., et al., J. Inorg. Biochem. 1996, 61, 291-301). The Pt(II) and Pt(IV) complexes containing isomeric forms of diaminocyclohexane, [PtCl2(cis-1,4-DACHA](1), [PtCl2(1R,2R-DACH)] (2), [Pt(OXA)(cis-1,4-DACH)] (3), cis,trans,cis-[Pt^IVCl2(OH)2(cis-1,4-DACH)] (4), cis,trans,cis-[Pt^IVCl2(DCA)2(cis-1,4-DACH)] (5), [Pt(CBDCA)(cis-1,4-DACH)] (6), cis,trans,cis-[Pt^IV(OXA)(OH)2(cis-1,4-DACH)] (7), and cis,trans,cis-[Pt^IV(OXA)(DCA)2(cis-1,4-DACH)] (8) were evaluated for their cytotoxic activity towards a panel of human tumor cell lines including cervical (A431), breast (MCF-7), cancers along with a melanoma (A375) and 4 different colon cancer cell lines corresponding to different stages of the disease progression (HCT-15, SW480, CaCo-2, DLD-1). The cytotoxicity was evaluated by means of the MTT test for 72 h treatment with increasing concentrations of the tested compounds.

A431 = test: MTT cytotoxicity assay, 72 h; type: cell-based, human; settings: A431, cervix
Source text: as §1, §2, §3, §4

DLD-1 = test: MTT cytotoxicity assay, 72 h; type: cell-based, human; settings: DLD-1, colon
Source text: as §1, §2, §3, §4

HCT-15 = test: MTT cytotoxicity assay, 72 h; type: cell-based, human; settings: HCT-15, colon
Source text: as §1, §2, §3, §4

MCF-7 = test: MTT cytotoxicity assay, 72 h; type: cell-based, human; settings: MCF-7, breast
Source text: as §1, §2, §3, §4

SW480 = test: MTT cytotoxicity assay, 72 h; type: cell-based, human; settings: SW480, colon
Source text: as §1, §2, §3, §4

LoVo colon cancer cells = test: MTT cytotoxicity assay, cross-resistance profile; type: cell-based, human; settings: 72 h
Source text: Human breast (MCF-7) and colon (HCT-15, DDL1, SW480 and CaCo-2) carcinoma cell lines along with melanoma (A375) were obtained from the American Type Culture Collection (ATCC, Rockville, Md.). A431 are human cervical carcinoma cells kindly provided by Prof. F. Zunino (Molecular Pharmacology Unit, Experimental Oncology and Molecular Medicine, Istituto Nazionale dei Tumori, Milan, Italy). […] G. Marverti (Dept. of Biomedical Science, University of Modena, Italy). LoVo human colon-carcinoma cell line and its multidrug-resistant sublime (LoVo MDR) were kindly provided by Prof F. Maj one (Department of Biology of Padova University, Italy).
as §2, §3
(§5) A LoVo cell line retaining a multidrug resistance phenotype was also considered (LoVo MDR). Cross-resistance profiles were evaluated by means of the resistance factor (RF), which is defined as the ratio between the IC50 value for the resistant cells and that arising from the sensitive cells (Table 2).

[1] = system: 2008 ovarian cancer cells; test: MTT cytotoxicity assay, cross-resistance profile; type: cell-based, human; settings: 72 h
Source text: as §1, §2, §3, §5

[2] = system: C13* cisplatin resistant ovarian cancer cells; test: MTT cytotoxicity assay, cross-resistance profile; type: cell-based, human; settings: for IC50: C13*, 72 h, MTT; for R.F. (resistance factor): IC50 C13* / IC50 2008, cross-resistance with cisplatin
Source text: as §1, §2, §3, §5

[3] = system: LoVo-OXP oxaliplatin resistant colon cancer cells; test: MTT cytotoxicity assay, cross-resistance profile; type: cell-based, human; settings: for R.F. (resistance factor): IC50 LoVo-OXP / IC50 LoVo, cross-resistance with oxaliplatin; for IC50: LoVo-OXP, 72 h, MTT
Source text: as §1, §2, §3, §5

[4] = system: LoVo MDR multidrug resistant colon carcinoma subline; test: MTT cytotoxicity assay, cross-resistance profile; type: cell-based, human; settings: for R.F. (resistance factor): IC50 LoVo-MDR / IC50 LoVo; for IC50: LoVo-MDR, 72 h, MTT
Source text: as §1, §2, §3, §5
In Table 2 are also reported the results obtained in a multidrug resistant (MDR) colon carcinoma subline, LoVo MDR, in which the resistance to doxorubicin, a drug belonging to the MDR spectrum, is associated with an overexpression of multi-specific drug transporters, such as the 170 kDa P-glycoprotein (P-gp) (Wersinger, C., et al., Amino Acids 2000, 19, 667-685). It is well known that acquired MDR, whereby cells become refractory to multiple drugs, poses most important challenge to the success of anticancer chemotherapy.

[5] = system: 2008/C13*, LoVo/LoVo-OXP, LoVo MDR; test: MTT cytotoxicity, comparison over the Table 2 cell lines; type: cell-based, human; settings: 2008 ovarian and LoVo colon sensitive cells
Method: as §3, with “After” for “Briefly, depending upon the growth characteristics of the cell line, 3-8×10^3 cells well^−1, were seeded in 96-well microplates in growth medium (100 μL) and then incubated at 37° C. in a 5% carbon dioxide atmosphere. After”
as §5

[6] = system: Lewis lung carcinoma (LLC); test: In vivo anticancer activity toward Lewis lung carcinoma; design: species or system C57BL mice; settings: daily dose i.p. 1.5 mg kg^−1 from day 9; day 15
Method: All studies involving animal testing were carried out in accordance with the ethical guidelines for animal research adopted by the University of Padua, acknowledging the Italian regulation and the European Directive 86/609/EEC as to animal welfare and protection and the related codes of practice. The mice were purchased from Charles River, Italy, and housed in steel cages under controlled environmental conditions (constant temperature, humidity, and 12 h dark/light cycle) and alimented with commercial standard feed and tap water ad libitum. Animals were observed daily, and body weight and food intake recorded. The Lewis lung carcinoma (LLC) cell line was purchased from ECACC, UK. The LLC cell line was maintained in D-MEM (Euroclone) supplemented with 10% heat-inactivated FBS (Euroclone), 10 mM L-glutamine, 100 U mL^−1 penicillin, and 100 μg mL^−1 streptomycin in a 5% CO2 air incubator at 37° C.
The Lewis lung carcinoma (LLC) was implanted i.m. as a 2×10^6 cell inoculum into the right hind leg of 8-week old male and female C57BL mice (24±3 g body weight). […] At day 15, animals were sacrificed, the legs were amputated at the proximal end of the femur, and the inhibition of tumor growth was determined according to the difference in weight of the tumor-bearing leg and the healthy leg of the animals expressed as % referred to the control animals. Body weight was measured every two days and was taken as a parameter for systemic toxicity.
All the values are the means±S.D. of not less than three measurements. Multiple comparisons were made by Tukey-Kramer test (**p<0.01; *p or °p<0.05).
The in vivo antitumor activity of compound 1 was evaluated in a model of solid tumor, the syngeneic murine Lewis lung carcinoma (LLC). […] For the assessment of the adverse side effects, changes in body weights of tumor-bearing mice were monitored daily (FIG. 3).

O=C1[O][Pt]2([OH])([OH])([NH]C3CCC(CC3)[NH]2)[O]C1=O [Compound 7, (OC-6-33)-[ethanedioato(2)-O,O′](cis-1,4-cyclohexanediamine-N,N′)dihydroxyplatinum]
IC50 (A375): 75.1 ± 6.54 µM | IC50 (A431): 59.5 ± 3.64 µM | IC50 (DLD-1): 82.2 ± 5.54 µM | IC50 (HCT-15): 72.1 ± 4.74 µM | IC50 (MCF-7): 112 ± 9.52 µM | IC50 (SW480): 69.4 ± 11.5 µM | IC50 (LoVo colon cancer cells): 61.2 ± 5.51 µM | IC50 [1]: 59.5 ± 3.64 µM | IC50 [2]: 78.7 ± 4.6 µM | R.F. (resistance factor) [2]: 1.3 | R.F. (resistance factor) [3]: 1.1 | IC50 [3]: 66.9 ± 5.12 µM | R.F. (resistance factor) [4]: 1.1 | IC50 [4]: 69.4 ± 4.83 µM | cytotoxic activity towards sensitive lines compared with reference drugs [5]: less effective than oxaliplatin and cisplatin

O=C1[O][Pt]2([O]C(=O)C(Cl)Cl)([O]C(=O)C(Cl)Cl)([NH]C3CCC(CC3)[NH]2)[O]C1=O [Compound 8, (OC-6-33)-[ethanedioato(2)-O,O′](cis-1,4-cyclohexanediamine-N,N′)bisdichloroacetateplatinum]
IC50 (A375): 4.99 ± 1.15 µM | IC50 (A431): 7.41 ± 2.11 µM | IC50 (DLD-1): 8.26 ± 3.24 µM | IC50 (HCT-15): 13.7 ± 3.81 µM | IC50 (MCF-7): 12.6 ± 2.47 µM | IC50 (SW480): 10.6 ± 2.01 µM | IC50 (LoVo colon cancer cells): 9.08 ± 2.16 µM | IC50 [1]: 11.1 ± 3.28 µM | IC50 [2]: 9.12 ± 2.79 µM | R.F. (resistance factor) [2]: 0.8 | R.F. (resistance factor) [3]: 1.2 | IC50 [3]: 11.1 ± 3.05 µM | R.F. (resistance factor) [4]: 1.3 | IC50 [4]: 11.9 ± 3.33 µM | cytotoxic activity towards sensitive lines compared with reference drugs [5]: lower than cisplatin and oxaliplatin in ovarian sensitive cancer cells, similar than cisplatin against colon sensitive cells

N.N.[Cl][Pt][Cl] [cisplatin, cis-diamminedichloroplatinum(II), reference compound]
IC50 (A375): 2.06 ± 1.01 µM | IC50 (A431): 1.96 ± 0.84 µM | IC50 (DLD-1): 8.01 ± 2.22 µM | IC50 (HCT-15): 15.5 ± 2.48 µM | IC50 (MCF-7): 8.37 ± 2.96 µM | IC50 (SW480): 7.67 ± 1.34 µM | IC50 (LoVo colon cancer cells): 7.63 ± 1.53 µM | IC50 [1]: 2.26 ± 1.06 µM | IC50 [2]: 23.7 ± 2.42 µM | R.F. (resistance factor) [2]: 10.5 | R.F. (resistance factor) [3]: 1.7 | IC50 [3]: 13.1 ± 2.47 µM | R.F. (resistance factor) [4]: 1.1 | IC50 [4]: 7.53 ± 0.98 µM | Average tumor weight (mean ± SD, g) [6]: 0.199 ± 0.10** g | Inhibition of tumor growth (%) [6]: 75% and 74.66%
